According to ChEMBL document CHEMBL5214949, “Synthesis and biological evaluation of (4-hydroxy-2-(substitued sulfonamido)pyrimidine-5-carbonyl)glycines as oral erythropoietin secretagogues” (Bioorg Med Chem Lett, 2022):
pEC50: −log10 of the molar value. Calls of active or inactive are those of the source. The calls are words filed in the database; no cut-off is given here.

Legend:
[1] = Cytotoxicity against human Hep3B cells assessed as cell viability at 100 ug/ml measured by MTT assay; type: toxicity, cell-based, Hep 3B2; conditions: at 100 µg/mL, read-out: Activity
Mus musculus = experiment: In vivo inhibition of PHD2 in ICR mouse assessed as increase in serum EPO production at 10 mg/kg, po and measured after 4 hrs by ELISA; type: functional, organism-based
[2] = Cytotoxicity against human Hep3B cells assessed as cell viability at 12.5 ug/ml measured by MTT assay; type: toxicity, cell-based, Hep 3B2; conditions: at 12.5 µg/mL, read-out: Activity
Egl nine homolog 1 = Egl nine homolog 1 (Homo sapiens, UniProt Q9GZT9); experiment: Inhibition of PHD2 in human Hep3B cells assessed as increase in EPO production measured after 24 hrs by ELISA; type: cell-based
Sequence of Egl nine homolog 1 (Q9GZT9 whole entry): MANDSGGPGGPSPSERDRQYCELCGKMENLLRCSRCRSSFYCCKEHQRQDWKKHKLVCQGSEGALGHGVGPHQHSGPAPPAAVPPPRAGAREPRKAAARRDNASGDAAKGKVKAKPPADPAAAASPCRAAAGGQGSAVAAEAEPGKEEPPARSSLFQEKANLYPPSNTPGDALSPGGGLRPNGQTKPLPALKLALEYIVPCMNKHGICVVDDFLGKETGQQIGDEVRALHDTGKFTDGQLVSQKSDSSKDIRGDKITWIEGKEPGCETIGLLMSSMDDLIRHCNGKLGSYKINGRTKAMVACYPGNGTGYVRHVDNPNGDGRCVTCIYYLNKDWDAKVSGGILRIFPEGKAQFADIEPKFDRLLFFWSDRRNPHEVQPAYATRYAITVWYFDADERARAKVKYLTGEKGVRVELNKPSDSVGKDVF

Row | pEC50 (Egl nine homolog 1) | SMILES | viability at 100 ug/ml [1] | inhibition (Mus musculus) | viability at 12.5 ug/ml [2]
1 | – | COc1ccc(S(=O)(=O)Nc2ncc(C(=O)NCC(=O)O)c(O)n2)cc1 | 110% | Active | 105%
2 | 5.10 | O=C(O)CNC(=O)c1cnc(NS(=O)(=O)c2ccc(Br)cc2)nc1O | 116% | – | 100%
3 | – | O=C(O)CNC(=O)c1cnc(NS(=O)(=O)Cc2ccccc2)nc1O | 87.5% | Active | 90%
4 | – | O=C(O)CNC(=O)c1cnc(NS(=O)(=O)c2ccc(-c3ccccc3)cc2)nc1O | 73.4% | Active | 91.9%
5 | – | O=C(O)CNC(=O)c1cnc(NS(=O)(=O)c2ccc(Cl)c(Cl)c2)nc1O | 90.9% | – | 89.5%
6 | 5.90 | O=C(O)CNC(=O)c1cnc(NS(=O)(=O)c2cccc(Cl)c2)nc1O | 84.4% | Active | 95.7%
7 | – | O=C(O)CNC(=O)c1cnc(NS(=O)(=O)c2ccccc2)nc1O | – | Active | –
8 | – | O=C(O)CNC(=O)c1cnc(NS(=O)(=O)c2ccc(Cl)cc2)nc1O | 93.4% | – | 85.5%
9 | 5.03 | Cc1ccc(S(=O)(=O)Nc2ncc(C(=O)NCC(=O)O)c(O)n2)cc1 | 102% | – | 98.5%
10 | – | Cc1nc(C(=O)NCC(=O)O)c(O)c2ccc(Oc3ccccc3)cc12 [ROXADUSTAT] | 58.5% | Active | 89.9%
11 | – | O=C(O)CNC(=O)c1cnc(NS(=O)(=O)c2ccc(C(F)(F)F)cc2)nc1O | 95.8% | Active | 97.2%
